Values joined by “and” are separate entries in the source; they are usually repeats but may differ in a detail not shown here. Equal entries are not always repeated. Inconclusive results and toxic doses are left out. The calls were made as follows: active = survival T/C of 150% or more; inactive = T/C below 125% in these data.
Test system: CD2F1 mice, L1210 leukemia ip, survival T/C
Experiment: NCI In Vivo Anticancer Drug Screen. Data for tumor model L1210 Leukemia (intraperitoneal) in CD2F1 (CDF1) mice
Conditions: higher = longer survival
Method in brief: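 Each value reflects a quotient of treated over vehicle control outcomes in mice with a transplanted tumor.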

[1] = endpoint: mean survival time, dose: 100.0 mg/kg/injection, schedule: Q04DX003 (ip), vehicle: saline
[2] = endpoint: mean survival time, dose: 100.0 mg/kg/injection, schedule: Q04DX003 (ip), vehicle: saline with Tween-80
[3] = endpoint: mean survival time, dose: 200.0 mg/kg/injection, schedule: Q04DX003 (ip), vehicle: saline with Tween-80
[4] = endpoint: mean survival time, dose: 400.0 mg/kg/injection, schedule: Q04DX003 (ip), vehicle: saline with Tween-80
[5] = endpoint: mean survival time, dose: 100.0 mg/kg/injection, schedule: Q01DX001 (ip), vehicle: saline with Tween-80
[6] = endpoint: mean survival time, dose: 200.0 mg/kg/injection, schedule: Q01DX001 (ip), vehicle: saline with Tween-80
[7] = endpoint: mean survival time, dose: 400.0 mg/kg/injection, schedule: Q01DX001 (ip), vehicle: saline with Tween-80
[8] = endpoint: mean survival time, dose: 100.0 mg/kg/injection, schedule: Q01DX009 (ip), vehicle: saline with Tween-80
[9] = endpoint: mean survival time, dose: 200.0 mg/kg/injection, schedule: Q01DX009 (ip), vehicle: saline with Tween-80
[10] = endpoint: mean survival time, dose: 50.0 mg/kg/injection, schedule: Q01DX009 (ip), vehicle: saline with Tween-80
[11] = endpoint: mean survival time, dose: 25.0 mg/kg/injection, schedule: Q01DX009 (ip), vehicle: saline with Tween-80

Measured: T/C

Cn1cnc([N+](=O)[O-])c1Sc1ncnc2c1cnn2C1OC(CO)C(O)C1O (stereo not drawn)
inactive: endpoint: mean survival time, dose: 25.0 mg/kg/injection, schedule: Q01DX009 (ip), vehicle: other 95 % of control | endpoint: mean survival time, dose: 50.0 mg/kg/injection, schedule: Q01DX009 (ip), vehicle: other 114 % of control | endpoint: mean survival time, dose: 100.0 mg/kg/injection, schedule: Q01DX009 (ip), vehicle: other 97 % of control | endpoint: mean survival time, dose: 200.0 mg/kg/injection, schedule: Q01DX009 (ip), vehicle: other 108 % of control | endpoint: mean survival time, dose: 400.0 mg/kg/injection, schedule: Q01DX009 (ip), vehicle: other 117 % of control | endpoint: median survival time, dose: 10.0 mg/kg/injection, schedule: Q01DX005 (ip), vehicle: saline with Tween-80 96 % of control | endpoint: median survival time, dose: 20.0 mg/kg/injection, schedule: Q01DX005 (ip), vehicle: saline with Tween-80 103 % of control | endpoint: median survival time, dose: 40.0 mg/kg/injection, schedule: Q01DX005 (ip), vehicle: saline with Tween-80 103 % of control | endpoint: median survival time, dose: 80.0 mg/kg/injection, schedule: Q01DX005 (ip), vehicle: saline with Tween-80 102 % of control | endpoint: median survival time, dose: 160.0 mg/kg/injection, schedule: Q01DX005 (ip), vehicle: saline with Tween-80 91 % of control

COc1cccc(C(=O)NC[n+]2ccccc2)c1
inactive: [1] 110 % of control

Cc1ccccc1NC(=O)C1CCC(C)(C(=O)O)C1(C)C (stereo not drawn)
inactive: [2] 98 % of control | [3] 93 % of control | [4] 96 % of control

COP(=O)(OC)OCC1OC(n2cnc3c(N)ncnc32)C(O)C1O (stereo not drawn)
inactive: endpoint: median survival time, dose: 12.5 mg/kg/injection, schedule: Q01DX005 (ip), vehicle: water 96 % of control | endpoint: median survival time, dose: 25.0 mg/kg/injection, schedule: Q01DX005 (ip), vehicle: water 96 % of control | endpoint: median survival time, dose: 50.0 mg/kg/injection, schedule: Q01DX005 (ip), vehicle: water 102 % of control | endpoint: median survival time, dose: 100.0 mg/kg/injection, schedule: Q01DX005 (ip), vehicle: water 103 % of control | endpoint: median survival time, dose: 200.0 mg/kg/injection, schedule: Q01DX005 (ip), vehicle: water 100 % of control

COC1=CCC(=Nc2ccccc2)C=C1
inactive: [5] 96 % of control | [6] 102 % of control | [7] 95 % of control

O=C(NC(CO)C(=O)OCc1ccccc1)OCc1ccccc1 (stereo not drawn)
inactive: [8] 107 % of control | [9] 96 % of control | endpoint: mean survival time, dose: 400.0 mg/kg/injection, schedule: Q01DX009 (ip), vehicle: saline with Tween-80 91 % of control

CC1CCCCN1 (stereo not drawn)
inactive: [5] 95 % of control | [7] 95 % of control

Cn1nc2ccccc2n1
inactive: endpoint: mean survival time, dose: 118.0 mg/kg/injection, schedule: Q04DX003 (ip), vehicle: saline with Tween-80 104 % of control | endpoint: mean survival time, dose: 178.0 mg/kg/injection, schedule: Q04DX003 (ip), vehicle: saline with Tween-80 98 % of control | endpoint: mean survival time, dose: 266.0 mg/kg/injection, schedule: Q04DX003 (ip), vehicle: saline with Tween-80 109 % of control | [4] 96 % of control

CCOc1ccc(-n2c(O)c(N=Nc3ccccc3)c(=O)n(-c3ccccc3)c2=S)cc1
inactive: [5] 92 % of control | [6] 102 % of control

c1cc2c3c(cccc3c1)C1C2C2c3cccc4cccc(c34)C12 (stereo not drawn)
inactive: [5] 93 % of control | [6] 97 % of control | [7] 100 % of control

O=C1NC(=O)c2c(O)ccc(O)c21
inactive: endpoint: mean survival time, dose: 100.0 mg/kg/injection, schedule: Q01DX001 (ip), vehicle: Klucel (hydroxypropylcellulose) (HPC) 114 % of control | endpoint: mean survival time, dose: 200.0 mg/kg/injection, schedule: Q01DX001 (ip), vehicle: Klucel (hydroxypropylcellulose) (HPC) 91 % of control | endpoint: mean survival time, dose: 400.0 mg/kg/injection, schedule: Q01DX001 (ip), vehicle: Klucel (hydroxypropylcellulose) (HPC) 95 % of control

CCCCCCCCCCCCCCCC(=O)NCCOC(C)=O
inactive: [10] 89 % of control | [8] 92 % of control | [2] 92 % of control | [9] 93 % of control | [3] 95 % of control | [4] 97 % of control

Cc1c(Cl)c(N)c(Cl)c(Cl)c1Cl
inactive: [2] 101 % of control | [3] 104 % of control | [4] 96 % of control

O=C(O)Cc1ccc(O)cc1
inactive: [5] 101 % of control | [6] 101 % of control | [7] 108 % of control

N=c1c2ncn(C3CCCC3)c2ncn1OCc1ccccc1
inactive: endpoint: mean survival time, dose: 100.0 mg/kg/injection, schedule: Q01DX001 (ip), vehicle: other 98 % of control

CC1CC(=O)C2CC(Cl)CCC2(C)C1C (stereo not drawn)
inactive: [11] 97 % of control | [10] 90 % of control | [8] 94 % of control

CCCCCCCCCCCC(=O)[O][Sn]([CH2]CCC)([CH2]CCC)[O]C(=O)CCCCCCCCCCC
inactive: endpoint: mean survival time, dose: 3.0 mg/kg/injection, schedule: Q04DX003 (ip), vehicle: saline with Tween-80 100 % of control | endpoint: mean survival time, dose: 6.0 mg/kg/injection, schedule: Q04DX003 (ip), vehicle: saline with Tween-80 103 % of control | endpoint: mean survival time, dose: 12.0 mg/kg/injection, schedule: Q04DX003 (ip), vehicle: saline with Tween-80 103 % of control

O=NN(CCCl)C(=O)/N=N/C(=O)N(CCCl)N=O
inactive: endpoint: median survival time, dose: 3.12 mg/kg/injection, schedule: Q01DX001 (ip), vehicle: water 100 % of control | endpoint: median survival time, dose: 6.25 mg/kg/injection, schedule: Q01DX001 (ip), vehicle: water 98 % of control | endpoint: median survival time, dose: 12.5 mg/kg/injection, schedule: Q01DX001 (ip), vehicle: water 113 % of control | endpoint: median survival time, dose: 25.0 mg/kg/injection, schedule: Q01DX001 (ip), vehicle: water 103 % of control and 105 % of control | endpoint: median survival time, dose: 50.0 mg/kg/injection, schedule: Q01DX001 (ip), vehicle: water 98 % of control and 112 % of control | endpoint: median survival time, dose: 100.0 mg/kg/injection, schedule: Q01DX001 (ip), vehicle: water 115 % of control (2×) and 122 % of control

[B-][N+]1(C)CC[N+]([B-])(C)CC1 (stereo not drawn)
inactive: endpoint: mean survival time, dose: 5.0 mg/kg/injection, schedule: Q01DX009 (ip), vehicle: saline with Tween-80 104 % of control | endpoint: mean survival time, dose: 5.0 mg/kg/injection, schedule: Q04DX003 (ip), vehicle: saline 103 % of control | endpoint: mean survival time, dose: 10.0 mg/kg/injection, schedule: Q01DX009 (ip), vehicle: saline with Tween-80 96 % of control | endpoint: mean survival time, dose: 10.0 mg/kg/injection, schedule: Q04DX003 (ip), vehicle: saline 98 % of control | endpoint: mean survival time, dose: 20.0 mg/kg/injection, schedule: Q04DX003 (ip), vehicle: saline 98 % of control

C1CCC(C2CCCC[N-]2)[N-]C1.C1CCC(C2CCCC[N-]2)[N-]C1.O=N[O-].O=N[O-].[Ru+4] (stereo not drawn)
inactive: endpoint: mean survival time, dose: 3.13 mg/kg/injection, schedule: Q04DX003 (ip), vehicle: distilled water + Tween-80 90 % of control | endpoint: mean survival time, dose: 6.25 mg/kg/injection, schedule: Q04DX003 (ip), vehicle: distilled water + Tween-80 95 % of control | endpoint: mean survival time, dose: 12.5 mg/kg/injection, schedule: Q04DX003 (ip), vehicle: distilled water + Tween-80 95 % of control | endpoint: mean survival time, dose: 25.0 mg/kg/injection, schedule: Q04DX003 (ip), vehicle: distilled water + Tween-80 93 % of control | endpoint: mean survival time, dose: 50.0 mg/kg/injection, schedule: Q04DX003 (ip), vehicle: distilled water + Tween-80 92 % of control | endpoint: mean survival time, dose: 100.0 mg/kg/injection, schedule: Q04DX003 (ip), vehicle: distilled water + Tween-80 90 % of control | endpoint: mean survival time, dose: 200.0 mg/kg/injection, schedule: Q04DX003 (ip), vehicle: distilled water + Tween-80 90 % of control

Cc1ccc(-c2oc3ccccc3c(=O)c2O)cc1
inactive: endpoint: mean survival time, dose: 50.0 mg/kg/injection, schedule: Q01DX001 (ip), vehicle: saline 98 % of control | endpoint: mean survival time, dose: 100.0 mg/kg/injection, schedule: Q01DX001 (ip), vehicle: saline 92 % of control | endpoint: mean survival time, dose: 200.0 mg/kg/injection, schedule: Q01DX001 (ip), vehicle: saline 98 % of control | endpoint: mean survival time, dose: 400.0 mg/kg/injection, schedule: Q01DX001 (ip), vehicle: saline 98 % of control

Cc1cccc(CNc2ccc(S(=O)(=O)c3ccc(NCc4cccc(C)n4)cc3)cc2)n1
inactive: [1] 97 % of control | endpoint: mean survival time, dose: 200.0 mg/kg/injection, schedule: Q04DX003 (ip), vehicle: saline 112 % of control | endpoint: mean survival time, dose: 400.0 mg/kg/injection, schedule: Q04DX003 (ip), vehicle: saline 93 % of control

CC/C=N/Nc1ccc([N+](=O)[O-])cc1[N+](=O)[O-]
inactive: endpoint: mean survival time, dose: 12.5 mg/kg/injection, schedule: Q01DX009 (ip), vehicle: saline with Tween-80 91 % of control | [11] 92 % of control | [10] 93 % of control

CN(C)C(=S)Nc1ccccc1
inactive: [8] 95 % of control | [2] 93 % of control | [9] 95 % of control | [3] 90 % of control | [4] 88 % of control

OC1C2CCN(CC2)C1CN1CC=C(c2ccccc2)CC1 (stereo not drawn)
inactive: [1] 100 % of control

CCSC(=O)CC
inactive: [8] 93 % of control | [9] 98 % of control

CCCCC(C)(C)C
inactive: [2] 99 % of control | [3] 99 % of control | [4] 114 % of control

NC(=O)CC(NC(=O)OCc1ccccc1)C(=O)O (stereo not drawn)
inactive: [2] 95 % of control | [3] 101 % of control | [4] 93 % of control

O=C(O)CNS(=O)(=O)c1ccccc1
inactive: [2] 98 % of control | [3] 101 % of control | [4] 93 % of control

Source: PubChem BioAssay AID256 (DTP/NCI, 2004)
